Where two headings read alike, the source gives them in different places.
How the values were obtained:
[1] = Imaging of a New Zealand White Rabbit with ^131 I-3; type: in vivo; conditions: intravenous ear injection
Description: It was thought that this small intestine uptake could be due to a difference in mouse ACE or in its distribution as compared to human ACE. It was decided to carry out this imaging experiment in a rabbit since rabbit ACE is believed to be similar to human ACE. It should be noted that it was rabbit ACE which was used in the IC50 assay.
^131 I-3 prepared as described above was taken up in phosphate buffered saline, the solution was filtered through a 0.2μ Millipore filter, and was introduced into the rabbit by intravenous ear injection followed by imaging of the rabbit.

[2] = Biodistribution of ^131 I-3 in CD-1 Mice, normal and blocked with lisinopril; type: in vivo; conditions: for tissue uptake at 0.5 h / tissue uptake at 1.5 h / tissue uptake at 3 h / tissue uptake at 6 h: iv, 1 uCi
Method: It is well known that there are high ACE concentrations in the lungs, kidneys, pre-optic region of the brain and the blood.^4 Localization of the radioactivity in these organs was expected. […] A blocking study was undertaken to differentiate between specific and non-specific binding.
^131 I-3 was prepared as described above and used in this experiment. The experiment was carried out using male CD-1 mice. The mice were fasted 15 hours prior to injection with 1 μCi of ^131 I-3 by bolus injection into the lateral tail vein. At various times following the dosing, selected mice were sacrificed, exsanguinated and dissected. The desired organs were rinsed, blotted, weighed and counted. For the blocking experiment, mice were treated with 10 μg of lisinopril (by bolus injection into the lateral tail vein) 5 minutes before injection of ^131 I-3.
This blocking experiment was an attempt to differentiate between specific and non-specific binding. […] This is illustrated by the dramatic decrease in radioactivity present in these organs in the blocked biodistribution as compared to the normal biodistribution. […] The anomaly of the first time point has yet to be explained.

[3] = mouse, blood, blocked (lisinopril), read-out: Biodistribution, Blood
[4] = mouse, blood, normal (not blocked), read-out: Biodistribution, Blood
[5] = mouse, contents, blocked (lisinopril), read-out: Biodistribution, Contents
[6] = mouse, contents, normal (not blocked), read-out: Biodistribution, Contents
[7] = mouse, fat, blocked (lisinopril), read-out: Biodistribution, Fat
[8] = mouse, fat, normal (not blocked), read-out: Biodistribution, Fat
[9] = mouse, kidney, blocked (lisinopril), read-out: Biodistribution, Kidney
[10] = mouse, kidney, normal (not blocked), read-out: Biodistribution, Kidney
[11] = mouse, large intestine, blocked (lisinopril), read-out: Biodistribution, lg. Intest.
[12] = mouse, large intestine, normal (not blocked), read-out: Biodistribution, lg. Intest.
[13] = mouse, liver, blocked (lisinopril), read-out: Biodistribution, Liver
[14] = mouse, liver, normal (not blocked), read-out: Biodistribution, Liver
[15] = mouse, lung, blocked (lisinopril), read-out: Biodistribution, Lung
[16] = mouse, lung, normal (not blocked), read-out: Biodistribution, Lung
[17] = mouse, muscle, blocked (lisinopril), read-out: Biodistribution, Muscle
[18] = mouse, muscle, normal (not blocked), read-out: Biodistribution, Muscle
[19] = mouse, small intestine, blocked (lisinopril), read-out: Biodistribution, Sm. Intest.
[20] = mouse, small intestine, normal (not blocked), read-out: Biodistribution, Sm. Intest.
[21] = mouse, stomach, blocked (lisinopril), read-out: Biodistribution, Stomach
[22] = mouse, stomach, normal (not blocked), read-out: Biodistribution, Stomach

O=C(NCCCC[C@H](N[C@@H](CCc1ccccc1)C(=O)O)C(=O)N1CCC[C@H]1C(=O)O)c1cccc([131I])c1 [^131 I-3, Lisinopril N^ε -radioiodobezamide]
organs imaged [1]: clearly show the lungs and kidneys at early time points, as well as in the bladder at later time points | kidney uptake, blocked vs normal ([2]; 0.5 hours, pre-injection with lisinopril): slight increase (or no change) | nature of uptake in kidney, lung and small intestine ([2]; blocking experiment): due to specific binding | uptake in kidneys and lungs ([2]; early time points): uptake in the kidneys and lungs at early time points | tissue uptake at 0.5 h ([2]; mouse, blood, 0.5 hours, blocked (lisinopril), read-out: Biodistribution, Blood): 6 %ID/g | tissue uptake at 0.5 h ([2]; mouse, blood, 0.5 hours, normal (not blocked), read-out: Biodistribution, Blood): 5.9 %ID/g | tissue uptake at 1.5 h [2, 3]: 3.2 %ID/g | tissue uptake at 1.5 h [2, 4]: 3.2 %ID/g | tissue uptake at 3 h [2, 3]: 1.3 %ID/g | tissue uptake at 3 h [2, 4]: 3.1 %ID/g | tissue uptake at 6 h [2, 3]: 0.9 %ID/g | tissue uptake at 6 h [2, 4]: 1 %ID/g | tissue uptake at 0.5 h ([2]; mouse, contents, 0.5 hours, blocked (lisinopril), read-out: Biodistribution, Contents): 17.9 %ID/g | tissue uptake at 0.5 h ([2]; mouse, contents, 0.5 hours, normal (not blocked), read-out: Biodistribution, Contents): 21.4 %ID/g | tissue uptake at 1.5 h [2, 5]: 28.5 %ID/g | tissue uptake at 1.5 h [2, 6]: 22.1 %ID/g | tissue uptake at 3 h [2, 5]: 15 %ID/g | tissue uptake at 3 h [2, 6]: 21.4 %ID/g | tissue uptake at 6 h [2, 5]: 48.9 %ID/g | tissue uptake at 6 h [2, 6]: 65.9 %ID/g | tissue uptake at 0.5 h ([2]; mouse, fat, 0.5 hours, blocked (lisinopril), read-out: Biodistribution, Fat): 0.6 %ID/g | tissue uptake at 0.5 h ([2]; mouse, fat, 0.5 hours, normal (not blocked), read-out: Biodistribution, Fat): 0.7 %ID/g | tissue uptake at 1.5 h [2, 7]: 0.5 %ID/g | tissue uptake at 1.5 h [2, 8]: 0.8 %ID/g | tissue uptake at 3 h [2, 7]: 0.2 %ID/g | tissue uptake at 3 h [2, 8]: 0.4 %ID/g | tissue uptake at 6 h [2, 7]: 0.1 %ID/g | tissue uptake at 6 h [2, 8]: 0.2 %ID/g | clearance from small intestine ([2]; mouse, in vivo): quite slow clearance | clearance from the lungs ([2]; mouse, in vivo): rapid clearance from the lungs | uptake in the small intestine ([2]; mouse, in vivo): High uptake in the small intestine | tissue uptake at 0.5 h ([2]; mouse, kidney, 0.5 hours, blocked (lisinopril), read-out: Biodistribution, Kidney): 9.8 %ID/g | tissue uptake at 0.5 h ([2]; mouse, kidney, 0.5 hours, normal (not blocked), read-out: Biodistribution, Kidney): 7.1 %ID/g | tissue uptake at 1.5 h [2, 9]: 2.4 %ID/g | tissue uptake at 1.5 h [2, 10]: 7.1 %ID/g | tissue uptake at 3 h [2, 9]: 1.4 %ID/g | tissue uptake at 3 h [2, 10]: 6.9 %ID/g | tissue uptake at 6 h [2, 9]: 0.5 %ID/g | tissue uptake at 6 h [2, 10]: 9.6 %ID/g | tissue uptake at 0.5 h ([2]; mouse, large intestine, 0.5 hours, blocked (lisinopril), read-out: Biodistribution, lg. Intest.): 1.1 %ID/g | tissue uptake at 0.5 h ([2]; mouse, large intestine, 0.5 hours, normal (not blocked), read-out: Biodistribution, lg. Intest.): 1.5 %ID/g | tissue uptake at 1.5 h [2, 11]: 1.4 %ID/g | tissue uptake at 1.5 h [2, 12]: 1.1 %ID/g | tissue uptake at 3 h [2, 11]: 13.4 %ID/g | tissue uptake at 3 h [2, 12]: 2.6 %ID/g | tissue uptake at 6 h [2, 11]: 14.6 %ID/g | tissue uptake at 6 h [2, 12]: 18.6 %ID/g | tissue uptake at 0.5 h ([2]; mouse, liver, 0.5 hours, blocked (lisinopril), read-out: Biodistribution, Liver): 7.6 %ID/g | tissue uptake at 0.5 h ([2]; mouse, liver, 0.5 hours, normal (not blocked), read-out: Biodistribution, Liver): 7.2 %ID/g | tissue uptake at 1.5 h [2, 13]: 1.4 %ID/g | tissue uptake at 1.5 h [2, 14]: 4.9 %ID/g | tissue uptake at 3 h [2, 13]: 1.9 %ID/g | tissue uptake at 3 h [2, 14]: 3.8 %ID/g | tissue uptake at 6 h [2, 13]: 0.3 %ID/g | tissue uptake at 6 h [2, 14]: 0.8 %ID/g | tissue uptake at 0.5 h ([2]; mouse, lung, 0.5 hours, blocked (lisinopril), read-out: Biodistribution, Lung): 1 %ID/g | tissue uptake at 0.5 h ([2]; mouse, lung, 0.5 hours, normal (not blocked), read-out: Biodistribution, Lung): 4.8 %ID/g | tissue uptake at 1.5 h [2, 15]: 0.6 %ID/g | tissue uptake at 1.5 h [2, 16]: 1.8 %ID/g | tissue uptake at 3 h [2, 15]: 0.5 %ID/g | tissue uptake at 3 h [2, 16]: 1.7 %ID/g | tissue uptake at 6 h [2, 15]: 0.3 %ID/g | tissue uptake at 6 h [2, 16]: 0.5 %ID/g | tissue uptake at 0.5 h ([2]; mouse, muscle, 0.5 hours, blocked (lisinopril), read-out: Biodistribution, Muscle): 1.1 %ID/g | tissue uptake at 0.5 h ([2]; mouse, muscle, 0.5 hours, normal (not blocked), read-out: Biodistribution, Muscle): 1.1 %ID/g | tissue uptake at 1.5 h [2, 17]: 0.4 %ID/g | tissue uptake at 1.5 h [2, 18]: 0.8 %ID/g | tissue uptake at 3 h [2, 17]: 0.3 %ID/g | tissue uptake at 3 h [2, 18]: 0.6 %ID/g | tissue uptake at 6 h [2, 17]: 0.2 %ID/g | tissue uptake at 6 h [2, 18]: 0.3 %ID/g | tissue uptake at 0.5 h ([2]; mouse, small intestine, 0.5 hours, blocked (lisinopril), read-out: Biodistribution, Sm. Intest.): 19.8 %ID/g | tissue uptake at 0.5 h ([2]; mouse, small intestine, 0.5 hours, normal (not blocked), read-out: Biodistribution, Sm. Intest.): 31.9 %ID/g | tissue uptake at 1.5 h [2, 19]: 21.7 %ID/g | tissue uptake at 1.5 h [2, 20]: 27 %ID/g | tissue uptake at 3 h [2, 19]: 14.2 %ID/g | tissue uptake at 3 h [2, 20]: 27 %ID/g | tissue uptake at 6 h [2, 19]: 1.2 %ID/g | tissue uptake at 6 h [2, 20]: 20.1 %ID/g | tissue uptake at 0.5 h ([2]; mouse, stomach, 0.5 hours, blocked (lisinopril), read-out: Biodistribution, Stomach): 24.2 %ID/g | tissue uptake at 0.5 h ([2]; mouse, stomach, 0.5 hours, normal (not blocked), read-out: Biodistribution, Stomach): 25.1 %ID/g | tissue uptake at 1.5 h [2, 21]: 13.3 %ID/g | tissue uptake at 1.5 h [2, 22]: 28.7 %ID/g | tissue uptake at 3 h [2, 21]: 12.8 %ID/g | tissue uptake at 3 h [2, 22]: 14.2 %ID/g | tissue uptake at 6 h [2, 21]: 4.2 %ID/g | tissue uptake at 6 h [2, 22]: 5.1 %ID/g | blocking of uptake in kidney and small intestine ([2]; pre-injection with lisinopril): effectively blocked at all time points | uptake in all other organs, blocked vs normal ([2]; pre-injection with lisinopril): no difference in uptake between the normal and blocked biodistributions

— patent publication US5601801A, “Radiolabelled angiotensin converting enzyme inhibitors” (Merck Frosst Canada, Inc., priority 1994, dated 1997)
